Assay [1] has as its target Voltage-gated inwardly rectifying potassium channel KCNH2 (Homo sapiens, UniProt Q12809). In kind it is functional. To be noted: read-out: AC50.
Assay [2] addresses Prostaglandin G/H synthase 1 (Homo sapiens, UniProt P23219). In kind it is functional.
For assay [3], the target named is T1, Muscarinic acetylcholine receptor M1 (Homo sapiens, UniProt P11229).
T1 sequence (P11229 whole entry): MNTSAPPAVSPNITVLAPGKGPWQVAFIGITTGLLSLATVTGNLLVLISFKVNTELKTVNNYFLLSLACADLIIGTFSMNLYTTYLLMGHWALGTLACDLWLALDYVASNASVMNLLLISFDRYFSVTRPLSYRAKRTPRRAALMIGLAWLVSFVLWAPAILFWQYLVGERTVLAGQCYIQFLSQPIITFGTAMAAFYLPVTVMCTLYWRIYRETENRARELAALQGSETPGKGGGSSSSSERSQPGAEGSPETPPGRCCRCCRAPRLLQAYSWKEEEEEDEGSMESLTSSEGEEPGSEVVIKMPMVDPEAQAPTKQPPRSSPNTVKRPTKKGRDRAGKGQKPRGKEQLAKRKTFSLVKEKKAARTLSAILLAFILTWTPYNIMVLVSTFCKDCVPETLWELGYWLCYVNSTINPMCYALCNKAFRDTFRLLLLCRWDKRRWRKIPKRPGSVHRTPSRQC
Type of assay: functional, cell-based.

Assay [4] has as its target Histamine H3 receptor (Homo sapiens, UniProt Q9Y5N1).
For assay [5], the target named is Mu-type opioid receptor (Homo sapiens, UniProt P35372).
Assay [6] addresses Acetylcholinesterase (Homo sapiens, UniProt P22303). In kind it is functional.

Here are results for 18 molecules from ChEMBL document CHEMBL5291721, “A preclinical secondary pharmacology resource illuminates target-adverse drug reaction associations of marketed drugs” (Nat Commun, 2023).

Molecules are shown by their SMILES.
Also: assay procedure not described here.

Sequence of Histamine H3 receptor (Q9Y5N1 whole entry): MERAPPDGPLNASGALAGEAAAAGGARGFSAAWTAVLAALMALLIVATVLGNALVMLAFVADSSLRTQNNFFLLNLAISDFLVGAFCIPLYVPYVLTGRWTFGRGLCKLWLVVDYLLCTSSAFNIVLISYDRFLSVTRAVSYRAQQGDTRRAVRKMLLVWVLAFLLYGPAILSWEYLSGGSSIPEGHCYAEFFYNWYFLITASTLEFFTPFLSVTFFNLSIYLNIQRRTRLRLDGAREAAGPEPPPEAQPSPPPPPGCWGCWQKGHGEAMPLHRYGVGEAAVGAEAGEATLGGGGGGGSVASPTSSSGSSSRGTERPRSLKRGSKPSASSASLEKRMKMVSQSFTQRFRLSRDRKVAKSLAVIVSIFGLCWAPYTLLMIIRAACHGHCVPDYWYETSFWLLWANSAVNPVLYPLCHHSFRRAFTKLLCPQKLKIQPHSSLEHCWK
Sequence of Acetylcholinesterase (P22303 whole entry): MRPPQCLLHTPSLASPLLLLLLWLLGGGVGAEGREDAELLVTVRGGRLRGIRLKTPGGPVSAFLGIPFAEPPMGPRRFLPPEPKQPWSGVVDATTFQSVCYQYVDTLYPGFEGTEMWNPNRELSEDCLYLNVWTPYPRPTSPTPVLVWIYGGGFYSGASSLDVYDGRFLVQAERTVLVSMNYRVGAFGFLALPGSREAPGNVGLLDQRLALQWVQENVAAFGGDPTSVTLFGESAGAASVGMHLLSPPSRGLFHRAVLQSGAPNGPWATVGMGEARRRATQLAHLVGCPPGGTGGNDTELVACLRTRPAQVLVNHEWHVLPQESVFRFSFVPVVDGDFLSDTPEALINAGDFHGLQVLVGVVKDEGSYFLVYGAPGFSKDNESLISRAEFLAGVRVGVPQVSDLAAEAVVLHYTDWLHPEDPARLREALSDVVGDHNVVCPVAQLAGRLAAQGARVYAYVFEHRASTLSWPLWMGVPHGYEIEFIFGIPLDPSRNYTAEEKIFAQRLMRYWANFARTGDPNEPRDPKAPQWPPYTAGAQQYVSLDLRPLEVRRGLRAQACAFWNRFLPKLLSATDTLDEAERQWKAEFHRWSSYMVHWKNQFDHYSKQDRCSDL
Sequence of Voltage-gated inwardly rectifying potassium channel KCNH2 (Q12809 whole entry): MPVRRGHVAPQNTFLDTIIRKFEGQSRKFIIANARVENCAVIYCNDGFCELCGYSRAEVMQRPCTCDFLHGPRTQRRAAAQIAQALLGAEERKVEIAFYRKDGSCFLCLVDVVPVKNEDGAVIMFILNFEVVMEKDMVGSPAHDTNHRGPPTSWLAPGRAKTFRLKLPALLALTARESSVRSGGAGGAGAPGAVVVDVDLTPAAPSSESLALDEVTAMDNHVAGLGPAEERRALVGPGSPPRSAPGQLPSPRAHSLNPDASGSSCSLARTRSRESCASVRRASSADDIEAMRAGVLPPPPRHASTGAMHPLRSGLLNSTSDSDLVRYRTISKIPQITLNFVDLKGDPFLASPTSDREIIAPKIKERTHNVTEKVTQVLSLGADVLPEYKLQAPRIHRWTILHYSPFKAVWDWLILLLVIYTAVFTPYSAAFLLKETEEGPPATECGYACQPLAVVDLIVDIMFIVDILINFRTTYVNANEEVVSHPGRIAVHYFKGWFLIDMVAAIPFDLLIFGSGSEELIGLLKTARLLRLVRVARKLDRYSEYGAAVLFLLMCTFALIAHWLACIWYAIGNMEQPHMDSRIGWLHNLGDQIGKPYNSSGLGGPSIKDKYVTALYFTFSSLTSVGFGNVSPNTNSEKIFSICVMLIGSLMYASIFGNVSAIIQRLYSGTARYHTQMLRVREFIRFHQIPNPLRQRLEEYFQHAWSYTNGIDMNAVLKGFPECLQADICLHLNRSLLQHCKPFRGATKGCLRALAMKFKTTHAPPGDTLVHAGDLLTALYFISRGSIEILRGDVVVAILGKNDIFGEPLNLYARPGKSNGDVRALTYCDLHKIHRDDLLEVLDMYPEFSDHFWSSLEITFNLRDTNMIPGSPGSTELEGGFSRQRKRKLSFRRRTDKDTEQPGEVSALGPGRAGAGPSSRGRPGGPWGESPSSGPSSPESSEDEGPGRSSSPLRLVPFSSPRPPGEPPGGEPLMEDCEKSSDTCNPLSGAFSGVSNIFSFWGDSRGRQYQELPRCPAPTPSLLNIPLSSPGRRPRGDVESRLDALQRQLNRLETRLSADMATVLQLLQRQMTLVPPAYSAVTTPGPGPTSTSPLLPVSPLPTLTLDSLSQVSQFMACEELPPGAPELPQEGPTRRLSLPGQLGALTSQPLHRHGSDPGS
Sequence of Prostaglandin G/H synthase 1 (P23219 whole entry): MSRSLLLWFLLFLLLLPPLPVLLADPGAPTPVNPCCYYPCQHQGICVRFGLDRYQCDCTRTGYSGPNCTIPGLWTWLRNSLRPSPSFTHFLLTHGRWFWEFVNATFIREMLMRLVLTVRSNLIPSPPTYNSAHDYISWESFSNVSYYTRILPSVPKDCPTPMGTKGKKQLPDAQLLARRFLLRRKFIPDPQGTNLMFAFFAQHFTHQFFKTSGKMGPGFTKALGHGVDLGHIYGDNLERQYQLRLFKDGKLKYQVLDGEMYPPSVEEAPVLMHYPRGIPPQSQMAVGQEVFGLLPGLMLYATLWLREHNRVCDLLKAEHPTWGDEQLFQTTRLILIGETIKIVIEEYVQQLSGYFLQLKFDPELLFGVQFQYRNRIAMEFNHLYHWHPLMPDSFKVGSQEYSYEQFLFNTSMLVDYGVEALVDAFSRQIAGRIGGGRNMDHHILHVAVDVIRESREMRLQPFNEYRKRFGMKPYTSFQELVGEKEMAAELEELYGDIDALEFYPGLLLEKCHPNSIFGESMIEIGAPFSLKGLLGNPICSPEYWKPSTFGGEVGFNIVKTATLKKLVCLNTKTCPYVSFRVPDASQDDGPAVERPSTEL
Sequence of Mu-type opioid receptor (P35372 whole entry): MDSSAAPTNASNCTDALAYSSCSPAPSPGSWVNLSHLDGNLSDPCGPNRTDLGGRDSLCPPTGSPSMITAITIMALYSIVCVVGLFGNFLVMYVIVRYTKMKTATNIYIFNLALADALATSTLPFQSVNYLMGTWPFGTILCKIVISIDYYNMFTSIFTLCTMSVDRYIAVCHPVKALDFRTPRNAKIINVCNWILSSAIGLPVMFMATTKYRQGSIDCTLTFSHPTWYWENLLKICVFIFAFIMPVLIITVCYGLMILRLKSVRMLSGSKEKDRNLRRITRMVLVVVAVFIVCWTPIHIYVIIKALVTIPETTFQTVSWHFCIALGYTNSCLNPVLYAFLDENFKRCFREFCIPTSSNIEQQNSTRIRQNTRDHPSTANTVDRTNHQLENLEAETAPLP

For orientation: AC50 means the midpoint of the concentration-response curve, whichever way the signal moves. `O=C(O)COc1nn(Cc2ccccc2)c2ccccc12` [BENDAZAC]: the AC50 in assay [1], in assay [2], in assay [3], in assay [4], in assay [5] and in assay [6] was greater than 30 µM each time.

As for `Cc1ccc([C@@H]2O[C@H](CO)[C@@H](O)[C@H](O)[C@H]2O)cc1Cc1ccc(-c2ccc(F)cc2)s1` [CANAGLIFLOZIN ANHYDROUS], the half-maximal activity concentration (AC50) in assay [1], in assay [2], in assay [3], in assay [4], in assay [5] and in assay [6] was greater than 30 µM in each case.

In the case of `CN(C)CCN(Cc1ccc(Cl)cc1)c1ccccn1` [CHLOROPYRAMINE], the AC50 in assay [1] is 0.54 µM; in assay [2], greater than 30 µM; in assay [3], 2.27 µM; in assay [4], greater than 30 µM; in assay [5], 5.22 µM; in assay [6], greater than 30 µM.

`O=C(O)c1cc(=O)c2ccccc2o1` [CHROMOCARB]: the AC50 in assay [1] was greater than 30 µM; in assay [2] it was 23.9 µM; in assay [3], greater than 30 µM; in assay [4] it was greater than 30 µM; in assay [5] it was greater than 30 µM; in assay [6], greater than 30 µM.

For the molecule `CN(CC(=O)O)C(=N)N` [CREATINE], the AC50 in assay [1], in assay [2], in assay [3], in assay [4], in assay [5] and in assay [6] was greater than 30 µM in each case.

As to `C[C@]12CC[C@@H]3c4ccc(O)cc4CC[C@H]3[C@@H]1CC[C@@H]2OC(=O)CCC1CCCC1` [ESTRADIOL CYPIONATE], the AC50 was greater than 30 µM in assay [1]; 4.37 µM in assay [2]; greater than 30 µM in assay [3]; greater than 30 µM in assay [4]; greater than 30 µM in assay [5]; greater than 30 µM in assay [6].

On to `C[C@]12CCC(=O)C=C1CC[C@@H]1[C@@H]2[C@@H](O)C[C@@]2(C)[C@H]1CC[C@]2(O)C(=O)COC(=O)CCC(=O)O` [HYDROCORTISONE HEMISUCCINATE ANHYDROUS], for which the AC50 in assay [1], in assay [2], in assay [3], in assay [4], in assay [5] and in assay [6] was greater than 30 µM in each case.

With `N=C(N)NCc1cccc([123I])c1` [IOBENGUANE I 123], the AC50 in assay [1] is greater than 30 µM; in assay [2] it was greater than 30 µM; in assay [3], greater than 30 µM; in assay [4], greater than 30 µM; in assay [5] it was 22 µM; in assay [6] it was greater than 30 µM.

Regarding `C=C1c2c(Cl)ccc(O)c2C(=O)C2=C(O)[C@]3(O)C(=O)C(C(N)=O)=C(O)[C@@H](N(C)C)[C@@H]3[C@@H](O)[C@H]12` [MECLOCYCLINE], the AC50 in assay [1], in assay [2], in assay [3], in assay [4], in assay [5] and in assay [6] was greater than 30 µM throughout.

For `Cc1cc2c(OCC(O)CNC(C)C)cccc2[nH]1` (stereo not drawn) [MEPINDOLOL], the AC50 in assay [1] is greater than 30 µM; in assay [2], 15.2 µM; in assay [3], greater than 30 µM; in assay [4] it was greater than 30 µM; in assay [5], 21 µM; in assay [6] it was greater than 30 µM.

In the case of `CCOc1ccc2ccccc2c1C(=O)N[C@@H]1C(=O)N2[C@@H]1SC(C)(C)[C@@H]2C(=O)O` [NAFCILLIN], the AC50 in assay [1], in assay [2], in assay [3], in assay [4], in assay [5] and in assay [6] was greater than 30 µM in each case.

In the case of `O=C1[C@H]2CCCC[C@H]2C(=O)N1CCCCN1CCN(c2nsc3ccccc23)CC1` [PEROSPIRONE], the AC50 in assay [1] is 2.3 µM; in assay [2], greater than 30 µM; in assay [3], greater than 30 µM; in assay [4] it was greater than 30 µM; in assay [5], 9.84 µM; in assay [6], greater than 30 µM.

Consider `CN(C)CCC(c1ccccc1)c1ccccn1` (stereo not drawn) [PHENIRAMINE], for which the AC50 in assay [1], in assay [2], in assay [3], in assay [4], in assay [5] and in assay [6] was greater than 30 µM throughout.

For `CC(C)(C)C(=O)NCCCC(=O)O` [PIVAGABINE], the concentration at half-maximal activity (AC50) in assay [1], in assay [2], in assay [3], in assay [4], in assay [5] and in assay [6] was greater than 30 µM in each case.

For the molecule `CC(C)[N+](C)(CCOC(=O)C1c2ccccc2Oc2ccccc21)C(C)C` [PROPANTHELINE], the half-maximal activity concentration (AC50) in assay [1] was 2 µM; in assay [2], greater than 30 µM; in assay [3], greater than 30 µM; in assay [4], greater than 30 µM; in assay [5], greater than 30 µM; in assay [6], greater than 30 µM.

For `NC(=O)NS(=O)(=O)c1ccc(N)cc1` [SULFACARBAMIDE], the AC50 in assay [1], in assay [2], in assay [3], in assay [4], in assay [5] and in assay [6] was greater than 30 µM throughout.

As to `NCCc1ccc(O)cc1` [TYRAMINE], the AC50 in assay [1], in assay [2], in assay [3], in assay [4], in assay [5] and in assay [6] was greater than 30 µM in each case.

As to `CCCCCCCCCCCCCCCC(=O)OC/C=C(C)/C=C/C=C(C)/C=C/C1=C(C)CCCC1(C)C` [VITAMIN A PALMITATE], the AC50 in assay [1], in assay [2], in assay [3], in assay [4], in assay [5] and in assay [6] was greater than 30 µM in each case.
